Experimental data: the METLIN SMRT retention time set (Domingo-Almenara et al. 2019)

Assay: gradient 5% acetonitrile 3 min, to 50% in 2 min, to 85% in 15 min, held 3 min, 100 µL/min
Conditions: column: Zorbax Extend-C18 2.1 x 50 mm; eluents: water / acetonitrile, 0.1% formic acid
How it was run: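 In both positive and negative ionization mode, a quadrupole time-of-flight mass spectrometer coupled to HPLC analyzed pure standards run in mixtures of ~100 molecules. The Zorbax Extend-C18 column (2.1 × 50 mm, 1.8 μm) was operated at 100 μL/min with water and acetonitrile, each containing 0.1% formic acid. The dead volume was 40 μL and the dwell volume 900 μL. Retention time came from adduct peaks that were computationally picked and individually inspected by hand.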

RP-LC retention time | SMILES
981 s | Cc1ccsc1C(=O)Nc1cccc(OCc2nnc(-c3ccc(F)cc3)o2)c1
790 s | NC(=O)C1CCN(c2ncnc3c2c(-c2ccccc2)cn3-c2cccc(Cl)c2)CC1
839 s | CCOCCOC(=O)C1=C(C)NC2=C(C(=O)CC(C)(C)C2)C1c1ccccc1OC (stereo not given)
842 s | COC(=O)c1ccc(C(=O)NCC(O)(c2ccccc2)C(F)(F)F)cc1 (stereo not given)
833 s | COc1ccc2cc3c(=O)n(Cc4ccccc4)nc-3oc2c1
642 s | Cc1nc(CCNC(=O)[C@H]2CCCN2C(=O)c2cccc(F)c2)cs1
671 s | CC(=O)N1CCc2cc(N3CC(C(=O)NCc4ccccc4)CC3=O)ccc21 (stereo not given)
868 s | COc1ccc(CNC(=O)c2ccc3c(c2)N(C)C(=O)C2CCCCN32)c(OC)c1 (stereo not given)
637 s | COC(=O)c1ccc(C(=O)NCC2CCN(S(C)(=O)=O)CC2)cc1
618 s | COc1cccc(CNC(=O)CN2CCc3[nH]c4c(OC)ccc(Cl)c4c(=O)c3C2)c1
1250 s | CCCN1C(=O)COc2ccc(-c3noc(/C=C/c4ccccc4)n3)cc21
680 s | Cc1cccc(-c2nc3ccccn3c2NC(=O)NCCc2ccccc2)c1
892 s | CCNC(=O)N(CC(=O)N1CCc2sccc2C1COc1ccccc1)C(C)CC (stereo not given)
989 s | CCc1c(C)nc2nc(-c3ccccc3)nn2c1Nc1cccc(OC)c1
591 s | COc1ccccc1CNCc1ccc2c(c1)n(C)c(=O)n2C
614 s | COc1ccccc1NC(=O)c1cc2c(s1)CN(C(C)C)C2

RP-LC retention time | SMILES
797 s | COc1ccccc1NC(=O)N1CCCC1c1c(C)noc1C (stereo not given)
725 s | COc1ccc(N2CC(C(=O)NCCc3c[nH]c4ccccc34)CC2=O)cc1 (stereo not given)
563 s | CN(C)C(=O)c1cc2c(s1)CCC(C(=O)NCCc1ccncc1)C2 (stereo not given)
853 s | O=C(NCc1ccccc1F)c1ccc(NC(=O)C2CCC2)cc1N1CCOCC1
852 s | Cc1nn(-c2ccccc2)c2c1N(CC(=O)Nc1ccc(F)cc1F)C(=O)CS2
687 s | O=C(NCc1ccco1)N1CCc2nn(Cc3ccccc3)c(=O)n2CC1
918 s | O=C(NCCOc1ccccc1)c1ccccc1C(=O)c1ccccc1
662 s | COc1ccc(OC)c(NC(=O)NCC(c2cccnc2)c2c[nH]c3ccccc23)c1 (stereo not given)
885 s | CCOC(=O)CC1(NC(=O)NCC(=O)N2CCc3ccccc32)CCCCC1
998 s | Cc1ccc(C)c(NC(=O)C2CCN(S(C)(=O)=O)c3cc(C)ccc3O2)c1 (stereo not given)
890 s | O=C(NCCC1=CCCCC1)c1cccc(CN2C(=O)C3CCCN3C(=O)c3ccccc32)c1 (stereo not given)
674 s | O=C(NC1CC1)C1CCN(c2nc3ncn(CC(=O)N4CCc5ccccc5C4)c(=O)c3s2)CC1
961 s | CCOc1ccccc1NC(=O)c1cnc2c(c1)c(=O)n(C)c(=O)n2-c1ccc(OC)cc1
883 s | COC(=O)C1=CN(c2ccc(N(C)C)cc2)c2ccccc2S1(=O)=O
892 s | Cc1ccc(C)c(C(=O)NCCc2cn(CC(C)C)c3ncccc23)c1
611 s | COCCNc1c(-c2ccccc2)nc2sc(C(=O)NCc3cccnc3)c(C)n12

Further lines, the molecule ahead of its results:

SMILES | RP-LC retention time
COc1ccc(-c2nc3cc(C)ccn3c2NC(=O)c2ccc(Cl)c([N+](=O)[O-])c2)cc1 | 736 s
Cc1cnc(C2CCC2)n1CC1CCN(C(=O)Nc2ccc3c(c2)OCCO3)C1 (stereo not given) | 609 s
COc1ccc(S(=O)(=O)N2CCN(c3cnn4c(C)nnc4c3)CC2)cc1 | 670 s
CCCc1cc(N2CCN(C(=O)C3CCN(C(C)=O)CC3)CC2)nc2nnc(CC)n12 | 587 s
CCc1cccc(NC(=O)N2CCC(CC(=O)N3CCCCC3)CC2)c1 | 751 s
CSc1ccc(-c2nc3ccc(Br)cn3c2NC2CCCCC2)cc1 | 955 s
O=C(c1ccccc1-c1ocnc1C(=O)N1CCOCC1)N1CCCCC1 | 652 s
CC(C)n1cnc(S(=O)(=O)N2CCC(C(=O)Nc3ccc(F)cc3F)CC2)c1 | 728 s
Cc1nnc(-n2cccc2)s1 | 733 s
Cc1cc(C(=O)Nc2nc(-c3cccc(Cl)c3)c(C)s2)no1 | 1140 s
Cc1ccc(-n2ccn3cc(-c4ccc(F)cc4F)nc3c2=O)cc1Cl | 1000 s
COc1ccc(NC(=O)CCNc2cnc3cnccn23)cc1Cl | 603 s
O=C(NC1CCCC1)C1CCCN(S(=O)(=O)c2cc(-c3noc(C4CCCC4)n3)cs2)C1 (stereo not given) | 1120 s
COc1ccc(-n2c(=O)n(C)c(=O)c3cc(C(=O)Nc4ccc(Cl)cc4)cnc32)cc1 | 966 s
CCc1nnc(-c2cccs2)o1 | 731 s
CC(C)c1nnc(-c2ccc(S(=O)(=O)N3CCN(c4ccccn4)CC3)o2)o1 | 675 s
CC1CCN(CCCNC(=O)c2nc(CCS(=O)(=O)c3ccc(F)cc3)no2)CC1 | 634 s
CC(=O)c1cccc(NC(=O)CCc2c(C)nn(-c3cc(N(C)C)ncn3)c2C)c1 | 731 s
Cc1ccc(Cn2cc(-c3ccncc3)cc2C(=O)NCc2cccs2)cc1 | 734 s
Cc1ccc(NS(=O)(=O)c2ccc(-c3nnc(C4CCC4)o3)o2)c(C)c1 | 977 s

SMILES | RP-LC retention time
COc1ccc(Cn2nc3c(S(=O)(=O)N4CCCCC4)cccn3c2=O)cc1F | 888 s
COCC1(O)CCOC2(CCN(Cc3cccc(F)c3F)CC2)C1 (stereo not given) | 589 s
CNC(=O)c1sc2nc(-c3ccc(F)cc3)c(NCCOC)n2c1C | 741 s
Cc1ccc(-n2nc(N3CCCN(S(=O)(=O)c4ccccc4F)CC3)ccc2=O)cc1C | 914 s
O=C(NCC1CCN(S(=O)(=O)C2CC2)CC1)Nc1ccccc1C(F)(F)F | 765 s
NC(=O)c1c(N)c(C(=O)c2cccc([N+](=O)[O-])c2)n2ccccc12 | 649 s
CN(C1CCc2nn(CC3CC3)c(=O)n2CC1)S(=O)(=O)c1ccc(C#N)cc1 (stereo not given) | 743 s
COc1ccc(-c2noc(-c3ccc(N4CCN(C)CC4)nn3)n2)cc1 | 630 s
COc1ccc(Cl)cc1NC(=O)c1cc(C)n2nccc2n1 | 942 s
Brc1cccc(-c2nc3ncccn3c2NCc2ccccc2)c1 | 860 s
O=C(CNC(=O)c1ccc(=O)[nH]c1)Nc1ccc(-n2cnnn2)cc1 | 544 s
O=C(Cn1cccc1-c1nnc(C2CC2)o1)N1CCN(c2ccccc2F)CC1 | 872 s
O=C(Cc1ccc(Cl)cc1)NCc1nc(-c2ccc(-c3csc(C4CC4)n3)cc2)no1 | 1110 s
CC1CCCN(CC2CCN(S(=O)(=O)c3cccc(Cl)c3)CC2)C1 (stereo not given) | 696 s
N#Cc1ccc(C(=O)Nc2cnc(-c3ccc(Cl)cc3)nc2)cc1 | 1070 s
Cc1ccc(CN2CCc3nc(N4CCCC4)ncc3C2)cc1C | 640 s
CCN(CC)c1nc(C(=O)Nc2ccccc2OC)nc2nc(C)cc(C)c12 | 732 s
CCOc1ccc(-c2nc(Cc3noc(-c4ccccc4OC)n3)c(C)o2)cc1 | 1170 s
Cc1cc(C)cc(NC(=O)C2CCc3nc(N4CCOCC4)ncc3C2)c1 (stereo not given) | 848 s
COc1ccc(C(=O)N2CCCC2c2nc(-c3ccc(OC)c(OC)c3)no2)cc1OC (stereo not given) | 817 s

SMILES | RP-LC retention time
CCn1c(CCNC(=O)c2cc(Cl)ccc2F)nc2cccnc21 | 661 s
CC(=O)Nc1cccc(N2CC(C(=O)Nc3ccc(Cl)c(C(F)(F)F)c3)CC2=O)c1 (stereo not given) | 807 s
CCN1CCn2cc(S(=O)(=O)Nc3ccc(F)cc3C)cc2C1=O | 730 s
CCCCn1c(=O)c2ccccc2n(Cc2nc(-c3ccc(F)cc3)no2)c1=O | 1170 s
O=C(Cn1c2ccccc2c2ncn(Cc3nc(C4CC4)no3)c(=O)c21)NC1CCCC1 | 819 s
O=C(c1cccc(Cl)c1)N1CCN(c2cnn3c(C4CC4)nnc3c2)CC1 | 593 s
CCN1CCN(Cc2nc3cc(NC(=O)CC(C)C)ccc3n2C(C)C)CC1 | 571 s
Cc1cc(=O)n(CC(=O)Nc2ccc(F)cc2F)c(N2CCOCC2)n1 | 651 s
COc1ccccc1NC(=O)CN1C(=O)NC2(CCCCC2)C1=O | 760 s
CCc1cc(C(=O)Nc2ccc(C#N)cc2)nc2ccnn12 | 965 s
Cc1nn(-c2nc(-c3ccc(Cl)cc3)cs2)c(C)c1CC(=O)N1CCOCC1 | 1030 s
O=S(=O)(NC1CCCN(c2cc(-c3ccncc3)[nH]n2)C1)c1ccc(Cl)cc1 (stereo not given) | 579 s
COc1cccc(-c2nnc(Cc3nc(-c4cccs4)no3)o2)c1 | 929 s
O=C(c1nc(-c2ccccc2)nc2c1OCO2)N1CCCC1 | 815 s
Cc1ccc(-c2nc(C3CC(=O)N(c4ccc(Cl)cc4)C3)no2)cc1C (stereo not given) | 1200 s
O=C(Nc1cccc(OCc2nnc(-c3ccc(Cl)cc3)o2)c1)c1ccccn1 | 1070 s
CCCCC(=O)N1CCN(c2nc3ccccc3cc2-c2noc(C)n2)CC1 | 913 s
Cn1c(=O)c2cc(C(=O)N3CCN(c4ccccn4)CC3)sc2n(C)c1=O | 578 s
